Experimental data published in ChEMBL document CHEMBL1201862, “PubChem BioAssay data set” (2004).
Activity calls are given as the source filed them.

How the values were obtained:
[1] = molecular target: X-box-binding protein 1 (Homo sapiens, UniProt P17861); type: functional, Cricetulus griseus;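 note: confirmatory dose-response counter-screen serving a CHOP assay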
[2] = molecular target: DNA damage-inducible transcript 3 protein (Mus musculus, UniProt P35639); type: functional, Cricetulus griseus
Chain of DNA damage-inducible transcript 3 protein (P35639 whole entry): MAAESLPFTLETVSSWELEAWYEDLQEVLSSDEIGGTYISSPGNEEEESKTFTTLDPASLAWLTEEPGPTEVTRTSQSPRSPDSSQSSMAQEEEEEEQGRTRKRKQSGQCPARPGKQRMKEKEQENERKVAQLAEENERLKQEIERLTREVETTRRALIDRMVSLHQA

[3] = system: T-cell; experiment: loss of vesicle association with mouse CD8+ T cells – mouse 2C CD8+ T cells, flow cytometry, dose response (AID 485284); type: functional
[4] = molecular target: Beta Lactamase (Pseudomonas aeruginosa, UniProt Q932Y6); experiment: BLA reporter interference, concentration series – BLA reporter cells, FRET fluorescence, artefact control for TLR9-MyD88 binding inhibitor project, dose response (AID 588341); type: cell-based;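 note: cell based assay in CHO-K1 cells stably expressing beta-lactamase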
Chain of Beta Lactamase (Q932Y6 whole entry): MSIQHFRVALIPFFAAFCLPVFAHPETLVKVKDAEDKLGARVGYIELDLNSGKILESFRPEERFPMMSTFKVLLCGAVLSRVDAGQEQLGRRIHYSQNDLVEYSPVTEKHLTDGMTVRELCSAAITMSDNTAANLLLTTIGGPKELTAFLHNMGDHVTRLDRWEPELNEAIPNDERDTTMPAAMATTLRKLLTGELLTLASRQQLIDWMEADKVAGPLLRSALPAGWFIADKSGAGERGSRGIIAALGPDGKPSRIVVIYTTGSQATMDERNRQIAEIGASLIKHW

[5] = molecular target: Glucose-6-phosphate 1-dehydrogenase (Homo sapiens, UniProt P11413); experiment: inhibition of Homo sapiens G6PD, dose series – biochemical, fluorescence, selectivity assay for P. falciparum G6PD inhibitor project, dose response (AID 504792); type: functional
Chain of Glucose-6-phosphate 1-dehydrogenase (P11413 whole entry): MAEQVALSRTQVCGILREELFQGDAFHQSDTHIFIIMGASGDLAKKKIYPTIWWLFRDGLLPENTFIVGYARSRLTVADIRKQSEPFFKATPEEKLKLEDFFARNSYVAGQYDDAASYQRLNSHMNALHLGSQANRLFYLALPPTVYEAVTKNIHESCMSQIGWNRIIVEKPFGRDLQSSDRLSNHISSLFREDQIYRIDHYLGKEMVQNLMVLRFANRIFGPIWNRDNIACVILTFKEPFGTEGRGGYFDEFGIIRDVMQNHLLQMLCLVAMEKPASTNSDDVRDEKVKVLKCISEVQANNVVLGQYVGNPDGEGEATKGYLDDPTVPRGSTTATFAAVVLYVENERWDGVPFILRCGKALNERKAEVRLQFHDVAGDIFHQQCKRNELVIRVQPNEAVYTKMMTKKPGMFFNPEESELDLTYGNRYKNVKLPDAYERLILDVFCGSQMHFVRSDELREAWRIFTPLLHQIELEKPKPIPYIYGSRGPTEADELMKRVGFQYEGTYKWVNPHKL

[6] = molecular target: Hexokinase (Trypanosoma brucei, UniProt Q38C41); experiment: Confirmation assay for inhibitors of Trypanosoma brucei hexokinase 1-Analogue-first series. [Related pubchem assays (depositor defined):AID1430, AID1632, AID2516, AID2560, AID2579, AID2600, AID449725, AID492951]; type: functional
Chain of Hexokinase (Q38C41 whole entry, the tested form may be a part): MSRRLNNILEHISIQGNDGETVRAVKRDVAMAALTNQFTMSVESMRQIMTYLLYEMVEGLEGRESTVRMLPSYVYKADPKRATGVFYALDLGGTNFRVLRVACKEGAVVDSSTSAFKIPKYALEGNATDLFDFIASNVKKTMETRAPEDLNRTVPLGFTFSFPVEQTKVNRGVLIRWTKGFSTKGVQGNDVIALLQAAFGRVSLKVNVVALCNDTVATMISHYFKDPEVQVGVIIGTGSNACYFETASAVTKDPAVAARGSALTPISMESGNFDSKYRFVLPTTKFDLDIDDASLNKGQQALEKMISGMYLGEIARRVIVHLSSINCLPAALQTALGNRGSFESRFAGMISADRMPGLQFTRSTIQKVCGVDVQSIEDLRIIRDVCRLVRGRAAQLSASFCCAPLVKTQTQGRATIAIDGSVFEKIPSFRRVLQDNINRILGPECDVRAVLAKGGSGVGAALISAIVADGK

[7] = system: CHO; experiment: CHO cell viability loss, potency – luminescence, cytotoxicity control for TLR9-MyD88 binding inhibitor project, dose response (AID 588339); type: functional, cell-based, hamster; settings: Cricetulus griseus;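 note: CHO cells stably coexpressing TLR9 and MyD88 fusions from primary screen; compound exposure lasted 48 hours before viability readout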
[8] = molecular target: T1, Kappa-type opioid receptor (Homo sapiens, UniProt P41145); experiment: SAR analysis of Antagonists of the Kappa Opioid Receptor (KOR) using an Image-Based Assay - Set 4. [Related pubchem assays (depositor defined):AID1777, AID1785]; type: functional
T1 sequence (P41145 whole entry): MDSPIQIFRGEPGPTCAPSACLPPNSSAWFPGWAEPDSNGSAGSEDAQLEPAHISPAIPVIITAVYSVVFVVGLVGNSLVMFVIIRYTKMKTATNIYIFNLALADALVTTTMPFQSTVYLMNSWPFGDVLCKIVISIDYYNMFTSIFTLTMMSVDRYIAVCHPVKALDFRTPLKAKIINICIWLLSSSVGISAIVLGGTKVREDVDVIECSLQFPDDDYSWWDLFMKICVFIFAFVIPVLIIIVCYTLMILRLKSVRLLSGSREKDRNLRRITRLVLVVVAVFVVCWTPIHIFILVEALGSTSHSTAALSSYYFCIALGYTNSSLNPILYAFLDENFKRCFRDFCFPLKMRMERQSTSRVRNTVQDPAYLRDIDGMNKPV

[9] = molecular target: Delta-type opioid receptor (Homo sapiens, UniProt P41143); experiment: SAR Analysis of Antagonists of the DOR Receptor using an Image-Based Assay - Set 3. [Related pubchem assays (depositor defined):AID1777, AID1785]; type: functional;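 note: U2OS cells expressing DOR1 and beta-arrestin GFP stimulated with 100 nM SNC80; imaging of GFP-tagged beta-arrestin moving into spots after receptor activation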
Chain of Delta-type opioid receptor (P41143 whole entry): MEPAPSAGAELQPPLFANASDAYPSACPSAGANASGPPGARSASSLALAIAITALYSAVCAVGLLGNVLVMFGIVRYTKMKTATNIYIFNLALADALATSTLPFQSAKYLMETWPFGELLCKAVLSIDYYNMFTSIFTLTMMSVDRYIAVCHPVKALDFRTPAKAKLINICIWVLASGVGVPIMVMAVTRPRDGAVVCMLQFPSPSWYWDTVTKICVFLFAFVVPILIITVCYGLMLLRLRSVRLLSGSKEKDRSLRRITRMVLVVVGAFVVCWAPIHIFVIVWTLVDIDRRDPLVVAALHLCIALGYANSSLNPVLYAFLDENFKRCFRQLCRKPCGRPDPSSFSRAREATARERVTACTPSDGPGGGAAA

[10] = molecular target: T1, Kappa-type opioid receptor; experiment: SAR analysis of small molecule antagonists of the kappa opioid receptor via a luminescent beta-arrestin assay - Set 3. [Related pubchem assays (depositor defined):AID1777, AID1778, AID1785, AID1786, AID1966, AID2133, AID2136, AID2285, AID2495]; type: functional
[11] = molecular target: Mu-type opioid receptor (Homo sapiens, UniProt P35372); experiment: SAR Analysis of Antagonists of the MOR Receptor using an Image-Based Assay - Set 3. [Related pubchem assays (depositor defined):AID1777, AID1785, AID1786, AID1966, AID2133, AID2136, AID2284, AID2285, AID2420]; type: functional
Chain of Mu-type opioid receptor (P35372 whole entry): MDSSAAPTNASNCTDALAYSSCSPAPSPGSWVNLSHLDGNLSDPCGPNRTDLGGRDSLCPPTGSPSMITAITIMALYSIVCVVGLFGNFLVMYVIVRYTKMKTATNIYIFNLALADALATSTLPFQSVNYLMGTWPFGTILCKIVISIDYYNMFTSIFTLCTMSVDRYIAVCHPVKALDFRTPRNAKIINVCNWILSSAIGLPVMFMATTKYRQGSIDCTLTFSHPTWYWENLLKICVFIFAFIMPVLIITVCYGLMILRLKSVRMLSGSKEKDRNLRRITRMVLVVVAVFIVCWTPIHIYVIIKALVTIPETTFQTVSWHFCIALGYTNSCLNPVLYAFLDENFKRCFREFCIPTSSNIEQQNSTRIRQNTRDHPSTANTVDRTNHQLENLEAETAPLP

[12] = molecular target: T2, Tyrosine-protein phosphatase non-receptor type 7 (Homo sapiens, UniProt P35236); experiment: redox-active compounds inhibiting HePTP phosphatase – biochemical, fluorescence, mechanism study (AID 2068); type: functional
T2 sequence (P35236 whole entry): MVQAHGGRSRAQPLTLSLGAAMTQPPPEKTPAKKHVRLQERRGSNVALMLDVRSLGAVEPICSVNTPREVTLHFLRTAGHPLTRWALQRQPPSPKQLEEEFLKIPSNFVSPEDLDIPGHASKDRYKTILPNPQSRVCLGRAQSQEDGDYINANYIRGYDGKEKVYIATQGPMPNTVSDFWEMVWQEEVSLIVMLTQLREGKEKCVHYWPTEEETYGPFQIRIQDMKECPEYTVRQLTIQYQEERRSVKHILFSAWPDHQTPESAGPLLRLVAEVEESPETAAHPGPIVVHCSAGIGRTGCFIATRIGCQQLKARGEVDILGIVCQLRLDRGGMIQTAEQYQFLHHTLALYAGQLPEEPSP

Chain of X-box-binding protein 1 (P17861 whole entry): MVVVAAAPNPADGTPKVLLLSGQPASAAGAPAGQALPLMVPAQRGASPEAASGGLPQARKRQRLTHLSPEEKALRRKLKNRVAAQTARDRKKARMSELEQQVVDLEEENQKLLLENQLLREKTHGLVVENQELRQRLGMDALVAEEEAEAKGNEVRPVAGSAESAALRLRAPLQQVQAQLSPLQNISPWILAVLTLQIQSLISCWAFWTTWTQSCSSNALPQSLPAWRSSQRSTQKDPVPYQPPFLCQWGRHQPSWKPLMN

Q: How did the “Absolute IC50 (XBP1)” value [1] turn out when `O=C(CSC1c2ccccc2-c2ccccc21)N/N=C/c1ccccc1` was run?
A: Its value is 10 µM.

Q: And the “Absolute IC50 (CHOP)” value [2]?
A: The value was 10 µM.

Q: For `CC(=O)c1ccc(-c2csc(N3CCC(C(N)=O)CC3)n2)cc1`, which EC50 [3] is on record?
A: The EC50 was 2.47 µM (active).

Q: Which IC50 [4] does the source give for `O=c1c2cc(C(F)(F)F)ccc2sn1-c1ccccc1` here?
A: Its IC50 is > 49.8 µM (inactive).

Q: What about the IC50 [5] of the same compound?
A: The IC50 was 18.3 µM (active).

Q: And the IC50 [6]?
A: Its IC50 is > 25 µM (inactive).

Q: And the IC50 [7]?
A: The IC50 was 9.07 µM (active).

Q: With `Cc1ccc(N2CCN(CCCNC(=O)Cn3c(=O)c4cccn4c4c(C)ccnc43)CC2)cc1` as the compound, how does the IC50 [8] read?
A: The IC50 was 2.28 µM (active).

Q: What about the IC50 [9] of the same compound?
A: The IC50 was > 32 µM (inactive).

Q: What about the IC50 [10] of the same compound?
A: The IC50 was 0.875 µM (active).

Q: What about the IC50 [11] of the same compound?
A: The IC50 was > 32 µM (inactive).

Q: With `CC1CCN(C(=O)Nc2ccc3nc(-c4ccco4)c(-c4ccco4)nc3c2)CC1` as the compound, how does the IC50 [12] read?
A: The IC50 was 0.84 µM (active).
